Results taken from patent US10758534B2 (Vertex Pharmaceuticals Incorporated, priority 2014, dated 2020).

Molecular target: T1, F508del (Homo sapiens, UniProt P13569, DEL508-508)
T1 construct: expressed in transfected cells
Assay: Protocol 1: membrane potential optical assay (FLIPR III, voltage sensing dye), identification of potentiator compounds
Type: cell-based
Settings: Table 3, compounds of Table 1
Summary of the method: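 Gating potentiation is read as a membrane-potential fluorescence change (FLIPR III, voltage-sensing dye) after one forskolin addition under a Cl− gradient, with gluconate replacing chloride, pH 7.4. Cells are F508del-expressing NIH3T3 mouse fibroblasts held 24 h at 27 °C and exposed to compound before dye loading.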

T1 sequence (P13569 with tags, fused parts or gaps DEL508-508): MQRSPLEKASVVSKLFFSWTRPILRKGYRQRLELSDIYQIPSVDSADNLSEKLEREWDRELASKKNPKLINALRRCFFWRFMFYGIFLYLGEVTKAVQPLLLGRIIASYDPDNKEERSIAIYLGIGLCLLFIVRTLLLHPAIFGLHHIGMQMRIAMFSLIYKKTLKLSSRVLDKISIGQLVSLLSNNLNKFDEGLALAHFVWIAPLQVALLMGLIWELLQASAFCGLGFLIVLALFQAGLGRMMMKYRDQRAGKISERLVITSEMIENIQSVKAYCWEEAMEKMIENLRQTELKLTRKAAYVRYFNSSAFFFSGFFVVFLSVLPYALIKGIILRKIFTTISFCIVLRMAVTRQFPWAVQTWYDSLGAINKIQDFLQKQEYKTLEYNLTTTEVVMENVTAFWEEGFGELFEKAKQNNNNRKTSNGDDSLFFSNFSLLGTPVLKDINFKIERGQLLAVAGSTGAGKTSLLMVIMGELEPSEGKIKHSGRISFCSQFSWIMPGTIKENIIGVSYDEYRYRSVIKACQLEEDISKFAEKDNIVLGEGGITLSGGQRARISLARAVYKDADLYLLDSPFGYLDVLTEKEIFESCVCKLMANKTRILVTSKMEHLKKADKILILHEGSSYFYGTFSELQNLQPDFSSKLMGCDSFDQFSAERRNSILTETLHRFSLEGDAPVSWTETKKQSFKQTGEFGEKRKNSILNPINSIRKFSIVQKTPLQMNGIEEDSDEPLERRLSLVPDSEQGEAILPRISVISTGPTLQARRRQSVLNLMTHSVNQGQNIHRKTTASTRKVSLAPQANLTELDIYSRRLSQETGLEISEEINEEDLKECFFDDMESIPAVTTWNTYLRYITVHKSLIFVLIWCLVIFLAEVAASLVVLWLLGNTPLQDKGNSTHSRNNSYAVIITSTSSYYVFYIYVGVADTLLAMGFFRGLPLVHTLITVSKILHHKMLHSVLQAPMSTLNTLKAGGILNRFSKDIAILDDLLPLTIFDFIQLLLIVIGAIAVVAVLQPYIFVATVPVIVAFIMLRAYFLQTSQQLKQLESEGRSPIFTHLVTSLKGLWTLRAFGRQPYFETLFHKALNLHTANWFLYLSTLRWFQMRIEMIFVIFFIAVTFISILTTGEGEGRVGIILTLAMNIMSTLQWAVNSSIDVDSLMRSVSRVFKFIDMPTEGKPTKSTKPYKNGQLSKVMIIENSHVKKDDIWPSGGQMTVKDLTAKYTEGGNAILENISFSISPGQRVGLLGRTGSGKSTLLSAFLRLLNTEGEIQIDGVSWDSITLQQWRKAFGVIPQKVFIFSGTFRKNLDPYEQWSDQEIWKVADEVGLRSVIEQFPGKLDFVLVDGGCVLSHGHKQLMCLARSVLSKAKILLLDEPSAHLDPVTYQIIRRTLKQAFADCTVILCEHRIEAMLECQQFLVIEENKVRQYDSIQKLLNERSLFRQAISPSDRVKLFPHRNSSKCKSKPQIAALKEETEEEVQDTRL

| EC30 | Structure (SMILES) |
| --- | --- |
| +++ (“+++” means <3 uM) | C[C@@H]1CN(c2nc(-n3ccc(OCC(C)(C)C)n3)ccc2C(=O)NS(=O)(=O)c2cccnc2N)C(C)(C)C1 [Compound 1975, N-[(2-amino-3-pyridyl)sulfonyl]-6-[3-(2,2-dimethylpropoxy)pyrazol-1-yl]-2-[(4S)-2,2,4-trimethylpyrrolidin-1-yl]pyridine-3-carboxamide] |
| + (“+” means greater than 10 uM) | CCOc1ccc(-c2ccc(C(=O)NS(=O)(=O)c3nccnc3N)c(NCC3(C)CCOCC3)n2)cc1 [Compound 1203, N-(3-aminopyrazin-2-yl)sulfonyl-6-(4-ethoxyphenyl)-2-[(4-methyltetrahydropyran-4-yl)methylamino]pyridine-3-carboxamide] |
| + (“+” means greater than 10 uM) | Cc1cc(C)c(CN2Cc3ccccc3CCC2C(=O)NS(=O)(=O)c2ccc[nH]c2=O)c(C)c1 (centres unmarked) [Compound 855, N-[(2-oxo-1H-pyridin-3-yl)sulfonyl]-2-[(2,4,6-trimethylphenyl)methyl]-1,3,4,5-tetrahydro-2-benzazepine-3-carboxamide] |
| +++ (“+++” means <3 uM) | CC1CN(c2ncccc2C(=O)NS(=O)(=O)c2cccc(Nc3ccc4[nH]ccc4c3)n2)C(C)(C)C1 (centres unmarked) [Compound 1823, N—[[6-(1H-indol-5-ylamino)-2-pyridyl]sulfonyl]-2-(2,2,4-trimethylpyrrolidin-1-yl)pyridine-3-carboxamide] |
| + (“+” means greater than 10 uM) | CCc1cccc(S(=O)(=O)NC(=O)c2cc(C(C)(C)C)nn2Cc2c(C)cc(C)cc2C)c1 [Compound 823, 5-tert-butyl-N-(3-ethylphenyl)sulfonyl-2-[(2,4,6-trimethylphenyl)methyl]pyrazole-3-carboxamide] |
| +++ (“+++” means <3 uM) | Cc1cc(OC(C)C)ncc1-c1ccc(C(=O)NS(=O)(=O)c2cccc(N)n2)c(N2[C@H](C)CC[C@@H]2C)n1 [Compound 1514, N-[(6-amino-2-pyridyl)sulfonyl]-2-[(2R,5S)-2,5-dimethylpyrrolidin-1-yl]-6-(6-isopropoxy-4-methyl-3-pyridyl)pyridine-3-carboxamide] |
| +++ (“+++” means <3 uM) | Cc1cc(C)c(Oc2nc(-c3ccc(OCC4CC4)cc3)ccc2C(=O)NS(=O)(=O)c2ccc[nH]c2=O)c(C)c1 [Compound 1007, 6-[4-(cyclopropylmethoxy)phenyl]-N-[(2-oxo-1H-pyridin-3-yl)sulfonyl]-2-(2,4,6-trimethylphenoxy)pyridine-3-carboxamide] |

| Structure (SMILES) | EC30 |
| --- | --- |
| CC(C)COc1cc(F)cc(-c2cc(O)c(C(=O)NS(=O)(=O)c3cccc(N)n3)c(N3[C@H](C)CC[C@@H]3C)n2)c1 [Compound 1430, N-[(6-amino-2-pyridyl)sulfonyl]-2-[(2S,5R)-2,5-dimethylpyrrolidin-1-yl]-6-(3-fluoro-5-isobutoxy-phenyl)-4-hydroxy-pyridine-3-carboxamide] | +++ (“+++” means <3 uM) |
| CC(C)COc1cc(F)cc(-c2ccc(C(=O)NS(=O)(=O)N3CCC(N)C3)c(N3CC(C)CC3(C)C)n2)c1 (centres unmarked) [Compound 1467, N-(3-aminopyrrolidin-1-yl)sulfonyl-6-(3-fluoro-5-isobutoxy-phenyl)-2-(2,2,4-trimethylpyrrolidin-1-yl)pyridine-3-carboxamide] | +++ (“+++” means <3 uM) |
| COC1CCN(c2nc(-c3cc(F)cc(OCC(C)C)c3)ccc2C(=O)NS(=O)(=O)c2ccn[nH]2)CC1 [Compound 1245, 6-(3-fluoro-5-isobutoxy-phenyl)-2-(4-methoxy-1-piperidyl)-N-(1H-pyrazol-5-ylsulfonyl)pyridine-3-carboxamide] | + (“+” means greater than 10 uM) |
| CC(C)COc1cc(F)cc(-c2ccc(C(=O)NS(=O)(=O)c3cccc(N)n3)c(N3CCC(=O)C3(C)C)n2)c1 [Compound 1189, N-[(6-amino-2-pyridyl)sulfonyl]-2-(2,2-dimethyl-3-oxo-pyrrolidin-1-yl)-6-(3-fluoro-5-isobutoxy-phenyl)pyridine-3-carboxamide] | +++ (“+++” means <3 uM) |
